Our source for the IC50 and EC50 values is ChEMBL document CHEMBL5226317, “Camptothecin's journey from discovery to WHO Essential Medicine: Fifty years of promise” (Eur J Med Chem, 2021).

In general, IC50 refers to the concentration at which inhibition is half-maximal. In general, EC50 refers to the concentration giving half of the maximal effect. Low values mean higher potency in that assay, high ones lower potency in that assay.

Where a name gives a salt, the structure may show the parent alone.

Assay type in all cases: functional, cell-based
The subject of test [1] is A549. The experiment in a line: Cytotoxicity against human A549 cells incubated for 48 hrs by SpectraMax M5 microplate reader analysis. The following applies: A549, 48 h.
The subject of another test is NSCLC. The experiment in a line: Cytotoxicity against human NSCLC cells.
Test [2] has as its system HT-29. Briefly: Cytotoxicity against human HT-29 cells.
For test [3], the system named is A549. The experiment in a line: Cytotoxicity against human A549 cells.
Another test has as its system MSTO-211H. The experiment in a line: Antiproliferative activity against human MSTO-211H cells incubated for 72 hrs.
In another test the test system is NCI-H460. Briefly: Antiproliferative activity against human NCI-H460 cells incubated for 72 hrs. The conditions noted are these: NCI-H460, 72 h.
The next test relates to A-431. The experiment in a line: Antiproliferative activity against human A-431 cells incubated for 72 hrs. The following applies: A-431, 72 h.
A further test concerns HeLa. The experiment in a line: Antiproliferative activity against human HeLa cells incubated for 72 hrs.
The next test relates to Jurkat. Briefly: Anticancer activity against human Jurkat cells incubated for 48 hrs by MTT assay. (In general: Formazan colour is commonly taken as a measure of viable cells.)
In test [4] the test system is HepG2. Briefly: Anticancer activity against human HepG2 cells incubated for 48 hrs by MTT assay. The following applies: HepG2, 48 h.
The test system of test [5] is A549. The experiment in a line: Anticancer activity against human A549 cells incubated for 48 hrs by MTT assay. The following applies: A549, 48 h.
A further test relates to HCT-116. Briefly: Anticancer activity against human HCT-116 cells incubated for 48 hrs by MTT assay. The conditions noted are these: HCT-116, 48 h.
The test system of the next test is DU-145. The experiment in a line: Anticancer activity against human DU-145 cells incubated for 48 hrs by MTT assay. The following applies: DU-145, 48 h.
The test system of a further test is HL-60. Briefly: Anticancer activity against human HL-60 cells incubated for 48 hrs by MTT assay. The following applies: HL-60, 48 h.
The test system of the next test is H322. The experiment in a line: Anticancer activity against human H322 cells incubated for 48 hrs by MTT assay. The following applies: NCI-H322, 48 h.
For test [6], the system named is HT-29. Briefly: Anticancer activity against human HT-29 cells incubated for 48 hrs by MTT assay. The conditions noted are these: HT-29, 48 h.
A further test relates to SGC-7901. Briefly: Antiproliferative activity against human SGC-7901 cells incubated for 48 hrs by CCK-8 assay. The conditions noted are these: SGC-7901, 48 h.
The subject of test [7] is HCT-8. The experiment in a line: Antiproliferative activity against human HCT-8 cells incubated for 48 hrs by CCK-8 assay. The conditions noted are these: HCT-8, 48 h.
Test [8] deals with HCT-8. The experiment in a line: Cytotoxicity against human HCT-8 cells.
Test [9] relates to KB. Briefly: Antiproliferative activity against human KB cells incubated for 48 hrs by CCK-8 assay.
Test [10] relates to HepG2. The experiment in a line: Antiproliferative activity against human HepG2 cells incubated for 48 hrs by CCK-8 assay. The following applies: HepG2, 48 h.
The nature of test [11]: Antiproliferative activity against human KB-VIN cells measured after 72 hrs by colorimetric assay. The following applies: KBVIN.
Test [12] has as its system KB. Briefly: Antiproliferative activity against human KB cells measured after 72 hrs by colorimetric assay.
Test [13] concerns A549. The experiment in a line: Antiproliferative activity against human A549 cells measured after 72 hrs by colorimetric assay. The conditions noted are these: A549, 72 h.
The nature of test [14]: Cytotoxicity against human NCI-H196 cells incubated for 48 hrs by MTT assay. The conditions noted are these: NCI-H196, 48 h.
A further test deals with NCI-H520. The experiment in a line: Cytotoxicity against human NCI-H520 cells incubated for 48 hrs by MTT assay. The following applies: NCI-H520, 48 h.
For the next test, the system named is NCI-H1299. The experiment in a line: Cytotoxicity against human NCI-H1299 cells incubated for 48 hrs by MTT assay. The following applies: NCI-H1299, 48 h.
In test [15] the test system is A549. The experiment in a line: Cytotoxicity against human A549 cells incubated for 48 hrs by MTT assay. The conditions noted are these: A549, 48 h.
The next test concerns SBC-3. The experiment in a line: Cytotoxicity against human SBC-3 cells incubated for 48 hrs by MTT assay. The following applies: SBC-3, 48 h.
The test system of another test is SBC-5. The experiment in a line: Cytotoxicity against human SBC-5 cells incubated for 48 hrs by MTT assay. The conditions noted are these: SBC-5, 48 h.
Another test has as its system U-251. Briefly: Anticancer activity against human U-251 cells incubated for 72 hrs by MTT assay. The conditions noted are these: U-251, 72 h.
In the next test the test system is K562. The experiment in a line: Anticancer activity against human K562 cells incubated for 72 hrs by MTT assay. The conditions noted are these: K562, 72 h.
Another test deals with SW 1116. The experiment in a line: Anticancer activity against human SW 1116 cells incubated for 72 hrs by MTT assay. The following applies: SW 1116, 72 h.
Test [16] in a line: Anticancer activity against human SPCA1 cells incubated for 72 hrs by MTT assay. The following applies: SPCA1, 72 h.
A further test deals with SK-OV-3. The experiment in a line: Anticancer activity against human SK-OV-3 cells incubated for 72 hrs by MTT assay. The conditions noted are these: SK-OV-3, 72 h.
In test [17] the test system is A549. The experiment in a line: Antiproliferative activity against human A549 cells.
For a further test, the system named is MDA-MB-231. The experiment in a line: Antiproliferative activity against human MDA-MB-231 cells.
The nature of test [18]: Antiproliferative activity against human KB-VIN cells. The following applies: KBVIN.
In another test the test system is MCF7. The experiment in a line: Antiproliferative activity against human MCF7 cells.
Test [19] relates to KB. Briefly: Antiproliferative activity against human KB cells.
Test [20] can be described thus: Antiproliferative activity against human KB-VIN cells assessed as reduction in cell viability. The conditions noted are these: KBVIN.

`CC[C@@]1(O)C(=O)OCc2c1cc1n(c2=O)Cc2cc3cc4c(cc3nc2-1)OCO4`: it took 0.083 µM to reach half-maximal inhibition with A549 [1] (IC50). The same molecule gave an EC50 in the test on NSCLC of 0.001 µM.

Regarding `CC[C@@]1(OC(=O)CCC(=O)O[C@@H]2O[C@@H](C)[C@H](OC(C)=O)[C@@H](OC(C)=O)[C@H]2OC(C)=O)C(=O)OCc2c1cc1n(c2=O)Cc2cc3cc4c(cc3nc2-1)OCO4`, the IC50 in the test on A549 [1] is 0.083 µM.

For `CCc1c2c(nc3ccc(OC)cc13)-c1cc([C@@](O)(CC)C(=O)NCCCN3CCOCC3)c(CO)c(=O)n1C2`, the IC50 with HT-29 [2] and with A549 [3] was 0.02 µM throughout.

`CC[C@@]1(O)C(=O)OCc2c1cc1n(c2=O)Cc2c-1nc1ccccc1c2CSSCc1c2c(nc3ccccc13)-c1cc3c(c(=O)n1C2)COC(=O)[C@]3(O)CC`: the IC50 with MSTO-211H (Homo sapiens, MSTO-211H, 72 h) is 0.0022 µM; in the test on MSTO-211H (msto-211h), 0.002 µM; in the test on NCI-H460, 0.006 µM; with A-431, 0.021 µM; with HeLa, 0.009 µM.

`CC[C@@]1(O)C(=O)OCc2c1cc1n(c2=O)Cc2cc3cc(OCC(=O)OC(C)(C)C)ccc3nc2-1`: the IC50 in the test with Jurkat was 0.04 µM; in the test with HepG2 [4], 0.16 µM; with A549 [5] it was 0.06 µM; with HCT-116, 0.07 µM; in the test with DU-145, 0.06 µM; in the test on HL-60, 0.04 µM. Moreover, the figures for the IC50 in the test with H322 and in the test on HT-29 [6] were 0.46 µM and 0.07 µM, respectively.

Consider `CC[C@@]1(O)C(=O)OCc2c1cc1n(c2=O)Cc2cc3c(/C=C(\C)C(=O)OC)c(O)ccc3nc2-1`, for which the IC50 with SGC-7901 was 0.262 µM; in the test on HCT-8 [7], 0.03 µM; in the test with HCT-8 [8], 0.03 µM; in the test on KB [9], 0.73 µM; in the test with HepG2 [10] it was 0.176 µM.

Turning to `CC[C@@]1(O)C(=O)OCc2c1cc1n(c2=O)Cc2c-1nc1ccccc1c2CS`, the IC50 is 0.00185 µM with MSTO-211H (Homo sapiens, MSTO-211H, 72 h); 0.0018 µM with MSTO-211H (msto-211h); 0.027 µM with NCI-H460; 0.11 µM with A-431; 0.008 µM with HeLa.

Turning to `CCc1c2c(nc3ccccc13)-c1cc3c(c(=O)n1C2)COC(=O)[C@]3(CC)OC(=O)CN/C(Cc1ccc(OC)cc1)=N\S(=O)(=O)c1ccc(C)cc1`, the IC50 in test [11] is 0.026 µM; in the test on KB [12] it was 0.142 µM; with A549 [13], 0.0314 µM.

For the molecule `CC[C@@](O)(C(=O)NCCN1CCOCC1)c1cc2n(c(=O)c1CO)Cc1c-2nc2ccccc2c1-c1ccccc1`, the IC50 in the test on HT-29 [2] and in the test with A549 [3] was 0.1 µM throughout.

Take `CC[C@]1(OC(=O)CN/C(Cc2ccc(OC)cc2)=N\S(=O)(=O)c2ccc(C)cc2)C(=O)OCc2c1cc1n(c2=O)Cc2cc3ccccc3nc2-1`: the IC50 in test [11] was determined as 0.026 µM; with KB [12], 0.142 µM; in the test on A549 [13], 0.0314 µM.

On to `CCc1c2c(nc3ccc(OCc4cn(C(COC(CO)CO)COC(CO)CO)nn4)cc13)-c1cc3c(c(=O)n1C2)COC(=O)[C@@]3(O)CC`, for which the IC50 was 510 µM in test [14]; 1.5 µM in the test on NCI-H520; 1000 µM in the test with NCI-H1299; 23 µM with A549 [15]; 1.7 µM in the test on SBC-3; 4.8 µM in the test on SBC-5.

On to `CCc1c2c(nc3ccc(OC(=O)NC(CC(C)C)C(=O)O)cc13)-c1cc3c(c(=O)n1C2)COC(=O)[C@]3(O)CC` (stereo partly drawn), for which the IC50 in the test on U-251 is 1.7 µM; in the test with K562, 1.62 µM; in the test with SW 1116, 0.091 µM; in [16] it was 0.385 µM; in the test on SK-OV-3 it was 0.001 µM.

As for `CC[C@@](O)(C(=O)NCCCN1CCOCC1)c1cc2n(c(=O)c1CO)Cc1c-2nc2ccccc2c1-c1ccccc1`, the concentration for half-maximal inhibition (IC50) in the test with HT-29 [2] and in the test on A549 [3] was 0.01 µM throughout.

In the case of `CC[C@@]1(O)C(=O)OCc2c1cc1n(c2=O)Cc2c-1nc1ccccc1c2CN1CCN(C(=S)Nc2cccc3ccccc23)CC1`, the IC50 in the test on A549 [17] was 0.059 µM; in the test with MDA-MB-231, 0.588 µM; in test [18], 0.275 µM; in the test with MCF7, 0.789 µM; with KB [19], 0.089 µM; in test [20], 0.275 µM.

In the test with Jurkat, `CC[C@@]1(O)C(=O)OCc2c1cc1n(c2=O)Cc2cc3ccccc3nc2-1` [CAMPTOTHECIN] had an IC50 of 0.1 µM.

In the case of `CCc1c2c(nc3ccc(OC(=O)N4CCC(N5CCCCC5)CC4)cc13)-c1cc3c(c(=O)n1C2)COC(=O)[C@]3(O)CC` [IRINOTECAN], half-maximal inhibition in the test on A549 [1] (IC50) was put at 9.14 µM.

`CC[C@@]1(O)C(=O)OCc2c1cc1n(c2=O)Cc2cc3c(CN(C)C)c(O)ccc3nc2-1` [TOPOTECAN HYDROCHLORIDE] returned an IC50 in [18] of 0.511 µM.
